Reference: patent publication US20250019382A1, “NOVEL INHIBITORS OF CYCLIN-DEPENDENT KINASES” (Origenis Gmbh, priority 2021, published 2025)
pIC50: −log10 of the molar value.

The compounds below were run against T1, CDK9/CyclinT1 (Homo sapiens, UniProt P50750) (assay: CDK9/T1 ADPGlo kinase assay). Settings: CDK9/CyclinT1 6 nM, ATP 10 microM, PDKtide 40 microM, 120 min RT.
T1 construct: purchased ProQinase/Reaction Biology, USA #0371-0345-1
Type: biochemical
Procedure: The testing compound was evaluated in 12 concentrations in a 1:3 dilution series, starting from 5microM as the highest concentration.
In a white 384 microplate (Greiner bio-one, Austria #784904,) with 2 microL of 3-fold concentrated CDK9/CyclinT1 (ProQinase/Reaction Biology, USA #0371-0345-1, LOT.: 012), final concentration (f.c.) 6 nM, in 1×kinase buffer, 2 microL of compound (3× fold concentrated in f.c. 1.66% DMSO/H2O) was added and incubated at Room Temperature (RT) for 10 min. Then 2 microL of Substrate/ATP-Mix (3×PDKtide f.c. 40 microM, SignalChem Biotech, Canada via Biozol, Eching, Germany #P10-58, LOT.: L2230-7 and 3×UltraPure ATP f.c. 10 microM (ADP Glo Kinase assay, Promega GmbH, Germany #V9102)) were added, mixed and incubated for 120 min at RT.
After incubation time, 5 microL of ADP Glo reagent (ready to use, ADP Glo Kinase assay, Promega GmbH, Germany #V9102) were added, mixed and incubated for 40 min at RT.
In the last step, 10 microL of ADP Glo Detection reagent (ready to use, ADP Glo Kinase assay, Promega GmbH, Germany #V9102) were added, mixed and incubated for 30 min at RT.
GloMax Discover GM3000 Reader (Promega GmbH, Germany 9700000249) was used for the readout.
The inhibitor concentration was plotted against the luminescence to determine the IC50 using XLFit 5.5 (IDBS, Guildford) to fit to a sigmoidal dose response curve with a variable slope.

T1 sequence (P50750 whole entry): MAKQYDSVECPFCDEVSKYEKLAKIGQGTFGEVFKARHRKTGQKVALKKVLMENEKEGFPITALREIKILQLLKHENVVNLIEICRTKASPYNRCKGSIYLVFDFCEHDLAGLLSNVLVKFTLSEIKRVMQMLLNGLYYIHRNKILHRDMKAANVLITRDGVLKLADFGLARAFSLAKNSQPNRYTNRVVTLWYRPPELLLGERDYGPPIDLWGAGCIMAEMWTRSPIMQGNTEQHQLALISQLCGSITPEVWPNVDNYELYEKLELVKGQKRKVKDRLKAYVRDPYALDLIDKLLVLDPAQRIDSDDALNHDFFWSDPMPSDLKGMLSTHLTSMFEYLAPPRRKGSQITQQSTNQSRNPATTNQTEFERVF
T1 sequence (O60563 whole entry partner): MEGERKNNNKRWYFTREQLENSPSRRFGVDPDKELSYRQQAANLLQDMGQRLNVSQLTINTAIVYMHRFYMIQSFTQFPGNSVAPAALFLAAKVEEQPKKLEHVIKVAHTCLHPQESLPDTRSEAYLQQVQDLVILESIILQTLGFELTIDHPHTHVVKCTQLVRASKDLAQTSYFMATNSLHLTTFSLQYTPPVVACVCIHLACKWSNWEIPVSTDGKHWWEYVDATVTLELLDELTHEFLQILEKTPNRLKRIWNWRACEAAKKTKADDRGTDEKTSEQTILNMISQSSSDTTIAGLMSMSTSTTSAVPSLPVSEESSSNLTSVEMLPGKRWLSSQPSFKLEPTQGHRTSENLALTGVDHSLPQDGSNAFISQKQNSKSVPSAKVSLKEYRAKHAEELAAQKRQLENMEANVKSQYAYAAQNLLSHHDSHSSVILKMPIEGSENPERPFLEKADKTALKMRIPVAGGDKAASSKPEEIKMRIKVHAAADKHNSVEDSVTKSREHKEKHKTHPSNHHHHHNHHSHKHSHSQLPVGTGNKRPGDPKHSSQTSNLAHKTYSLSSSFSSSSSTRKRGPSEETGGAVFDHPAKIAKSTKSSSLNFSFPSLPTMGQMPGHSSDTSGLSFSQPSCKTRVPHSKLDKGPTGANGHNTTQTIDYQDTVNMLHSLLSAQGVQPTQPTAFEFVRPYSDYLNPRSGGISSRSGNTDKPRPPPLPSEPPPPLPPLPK

Row | Compound | pIC50
1 | CCOc1cc(Nc2nc(-c3c(F)cccc3F)nc3ccnn23)ccc1N1CCN(C)CC1 [Example #8, 2-(2,6-difluorophenyl)-N-(3-ethoxy-4-(4-methylpiperazin-1-yl)phenyl)pyrazolo[1,5-a][1,3,5]triazin-4-amine] | > 6.00
2 | CCOc1cc(Nc2nc(-c3c(Cl)cccc3Cl)nc3ccnn23)ccc1N1CCN(C)CC1 [Example #12, 2-(2,6-dichlorophenyl)-N-(3-ethoxy-4-(4-methylpiperazin-1-yl)phenyl)pyrazolo[1,5-a][1,3,5]triazin-4-amine] | > 6.00
3 | CCOc1cc(Nc2nc(-c3c(F)cccc3F)nc3ccnn23)ccc1C1=CCN(C)CC1 [Example #14, 2-(2,6-difluorophenyl)-N-(3-ethoxy-4-(1-methyl-1,2,3,6-tetrahydropyridin-4-yl)phenyl)pyrazolo[1,5-a][1,3,5]triazin-4-amine] | > 6.00
4 | CCOc1cc(Nc2nc(-c3c(F)cccc3Cl)nc3ccnn23)ccc1C1=CCN(C)CC1 [Example #16, 2-(2-chloro-6-fluorophenyl)-N-(3-ethoxy-4-(1-methyl-1,2,3,6-tetrahydropyridin-4-yl)phenyl)pyrazolo[1,5-a][1,3,5]triazin-4-amine] | > 6.00
5 | CCOc1cc(Nc2nc(-c3c(F)cccc3Cl)nc3ccnn23)ccc1C1CCN(C)CC1 [Example #17, 2-(2-chloro-6-fluorophenyl)-N-(3-ethoxy-4-(1-methylpiperidin-4-yl)phenyl)pyrazolo[1,5-a][1,3,5]triazin-4-amine] | > 6.00
6 | CCOc1cc(Nc2nc(-c3c(F)cccc3F)nc3ccnn23)ccc1C1CCN(C)CC1 [Example #20, 2-(2,6-difluorophenyl)-N-(3-ethoxy-4-(1-methylpiperidin-4-yl)phenyl)pyrazolo[1,5-a][1,3,5]triazin-4-amine] | > 6.00
7 | O=C(NCC(F)(F)F)c1ccc(Nc2nc(-c3c(F)cccc3Cl)nc3ccnn23)cc1 [Example #22, 4-((2-(2-chloro-6-fluorophenyl)pyrazolo[1,5-a][1,3,5]triazin-4-yl)amino)-N-(2,2,2-trifluoroethyl)benzamide] | > 6.00
8 | CC(C)(C)NC(=O)c1ccc(Nc2nc(-c3c(F)cccc3Cl)nc3ccnn23)cc1 [Example #23, N-(tert-butyl)-4-((2-(2-chloro-6-fluorophenyl)pyrazolo[1,5-a][1,3,5]triazin-4-yl)amino)benzamide] | > 6.00
9 | CCNC(=O)c1ccc(Nc2nc(-c3c(F)cccc3Cl)nc3ccnn23)cc1 [Example #24, 4-((2-(2-chloro-6-fluorophenyl)pyrazolo[1,5-a][1,3,5]triazin-4-yl)amino)-N-ethylbenzamide] | > 6.00
10 | O=C(NC1CCOCC1)c1ccc(Nc2nc(-c3c(F)cccc3Cl)nc3ccnn23)cc1 [Example #25, 4-((2-(2-chloro-6-fluorophenyl)pyrazolo[1,5-a][1,3,5]triazin-4-yl)amino)-N-(tetrahydro-2H-pyran-4-yl)benzamide] | > 6.00
11 | O=C(NCC(F)(F)F)c1ccc(Nc2nc(-c3c(F)cccc3F)nc3ccnn23)cc1 [Example #26, 4-((2-(2,6-difluorophenyl)pyrazolo[1,5-a][1,3,5]triazin-4-yl)amino)-N-(2,2,2-trifluoroethyl)benzamide] | > 6.00
12 | CC(C)(C)NC(=O)c1ccc(Nc2nc(-c3c(F)cccc3F)nc3ccnn23)cc1 [Example #27, N-(tert-butyl)-4-((2-(2,6-difluorophenyl)pyrazolo[1,5-a][1,3,5]triazin-4-yl)amino)benzamide] | > 6.00
13 | CCNC(=O)c1ccc(Nc2nc(-c3c(F)cccc3F)nc3ccnn23)cc1 [Example #28, 4-((2-(2,6-difluorophenyl)pyrazolo[1,5-a][1,3,5]triazin-4-yl)amino)-N-ethylbenzamide] | > 6.00
14 | O=C(NC1CCOCC1)c1ccc(Nc2nc(-c3c(F)cccc3F)nc3ccnn23)cc1 [Example #29, 4-((2-(2,6-difluorophenyl)pyrazolo[1,5-a][1,3,5]triazin-4-yl)amino)-N-(tetrahydro-2H-pyran-4-yl)benzamide] | > 6.00
15 | CCOc1cc(Nc2nc(-c3c(F)cccc3Cl)nc3ccnn23)ccc1N1CCN(C)CC1 [Example #32, 2-(2-chloro-6-fluorophenyl)-N-(3-ethoxy-4-(4-methylpiperazin-1-yl)phenyl)pyrazolo[1,5-a][1,3,5]triazin-4-amine] | > 6.00
16 | CCOc1cc(Nc2nc(-c3c(F)cccc3Cl)nc3ccnn23)ccc1C1=CCN(C2CC2)CC1 [Example #34, 2-(2-chloro-6-fluorophenyl)-N-(4-(1-cyclopropyl-1,2,3,6-tetrahydropyridin-4-yl)-3-ethoxyphenyl)pyrazolo[1,5-a][1,3,5]triazin-4-amine] | > 6.00

Row | Compound | pIC50
17 | CC(C)(C#N)n1cc(Nc2nc(-c3c(F)cccc3Cl)nc3ccnn23)cn1 [Example #36, 2-(4-((2-(2-chloro-6-fluorophenyl)pyrazolo[1,5-a][1,3,5]triazin-4-yl)amino)-1H-pyrazol-1-yl)-2-methylpropanenitrile] | > 6.00
18 | Fc1cccc(F)c1-c1nc(Nc2ccc(N3CCOCC3)cc2)n2nccc2n1 [Example #37, 2-(2,6-difluorophenyl)-N-(4-morpholinophenyl)pyrazolo[1,5-a][1,3,5]triazin-4-amine] | > 6.00
19 | CN1CCN(c2ccc(Nc3nc(-c4c(F)cccc4F)nc4ccnn34)cc2)CC1 [Example #38, 2-(2,6-difluorophenyl)-N-(4-(4-methylpiperazin-1-yl)phenyl)pyrazolo[1,5-a][1,3,5]triazin-4-amine] | > 6.00
20 | CC(=O)N1CCN(c2ccc(Nc3nc(-c4c(F)cccc4F)nc4ccnn34)cc2)CC1 [Example #39, 1-(4-(4-((2-(2,6-difluorophenyl)pyrazolo[1,5-a][1,3,5]triazin-4-yl)amino)phenyl)piperazin-1-yl)ethan-1-one] | > 6.00
21 | N#Cc1cc(Nc2nc(-c3c(F)cccc3F)nc3ccnn23)ccc1N1CCOCC1 [Example #42, 5-((2-(2,6-difluorophenyl)pyrazolo[1,5-a][1,3,5]triazin-4-yl)amino)-2-morpholinobenzonitrile] | > 6.00
22 | Fc1cccc(F)c1-c1nc(Nc2ccc(N3CCC(N4CCOCC4)CC3)cc2)n2nccc2n1 [Example #43, 2-(2,6-difluorophenyl)-N-(4-(4-morpholinopiperidin-1-yl)phenyl)pyrazolo[1,5-a][1,3,5]triazin-4-amine] | > 6.00
23 | CC(C)(C)N1CCN(c2ccc(Nc3nc(-c4c(F)cccc4F)nc4ccnn34)cc2)CC1 [Example #45, N-(4-(4-(tert-butyl)piperazin-1-yl)phenyl)-2-(2,6-difluorophenyl)pyrazolo[1,5-a][1,3,5]triazin-4-amine] | > 6.70
24 | CN1CCN(C2CCN(c3ccc(Nc4nc(-c5c(F)cccc5F)nc5ccnn45)cc3)CC2)CC1 [Example #46, 2-(2,6-difluorophenyl)-N-(4-(4-(4-methylpiperazin-1-yl)piperidin-1-yl)phenyl)pyrazolo[1,5-a][1,3,5]triazin-4-amine] | > 6.00
25 | CC(C)(C)N1CCN(c2ccc(Nc3nc(-c4ccccc4F)nc4ccnn34)cc2)CC1 [Example #54, N-(4-(4-(tert-butyl)piperazin-1-yl)phenyl)-2-(2-fluorophenyl)pyrazolo[1,5-a][1,3,5]triazin-4-amine] | > 6.00
26 | CN1CCN(C2CCN(c3ccc(Nc4nc(-c5ccccc5F)nc5ccnn45)cc3)CC2)CC1 [Example #59, 2-(2-fluorophenyl)-N-(4-(4-(4-methylpiperazin-1-yl)piperidin-1-yl)phenyl)pyrazolo[1,5-a][1,3,5]triazin-4-amine] | > 6.00
27 | COc1cc(Nc2nc(-c3c(F)cccc3F)nc3ccnn23)ccc1N1CCC(N2CCN(C)CC2)CC1 [Example #62, 2-(2,6-difluorophenyl)-N-(3-methoxy-4-(4-(4-methylpiperazin-1-yl)piperidin-1-yl)phenyl)pyrazolo[1,5-a][1,3,5]triazin-4-amine] | > 6.00
28 | COc1ccc(Nc2nc(-c3c(F)cccc3F)nc3ccnn23)cc1OC [Example #65, 2-(2,6-difluorophenyl)-N-(3,4-dimethoxyphenyl)pyrazolo[1,5-a][1,3,5]triazin-4-amine] | > 6.00
29 | CN1CCC(N2CCC(n3cc(Nc4nc(-c5c(F)cccc5F)nc5ccnn45)cn3)CC2)CC1 [Example #66, 2-(2,6-difluorophenyl)-N-(1-(1′-methyl-[1,4′-bipiperidin]-4-yl)-1H-pyrazol-4-yl)pyrazolo[1,5-a][1,3,5]triazin-4-amine] | > 6.70
30 | Fc1cccc(F)c1-c1nc(Nc2cnn(C3CCN(C4CCOCC4)CC3)c2)n2nccc2n1 [Example #67, 2-(2,6-difluorophenyl)-N-(1-(1-(tetrahydro-2H-pyran-4-yl)piperidin-4-yl)-1H-pyrazol-4-yl)pyrazolo[1,5-a][1,3,5]triazin-4-amine] | > 6.70
31 | Fc1cccc(F)c1-c1nc(Nc2cnn([C@H]3CC[C@H](N4CCOCC4)CC3)c2)n2nccc2n1 [Example #68, 2-(2,6-difluorophenyl)-N-(1-((1r,4r)-4-morpholinocyclohexyl)-1H-pyrazol-4-yl)pyrazolo[1,5-a][1,3,5]triazin-4-amine] | > 6.70
